Experimental findings from patent publication US12110276B2 (Genentech, Inc., priority 2021, dated 2024) are described below.

In one assay the target is TEAD3 (Homo sapiens (Human), UniProt Q99594). The experiment in a line: TR-FRET lipid pocket probe competition assay (Lipid HTRF), TEAD3. The class given is binding. To be noted: 4 hours pre-incubation; read-out: Lipid HTRF TEAD3 IC50.
For a further assay, the target named is TEAD4 (Homo sapiens (Human), UniProt Q15561). Nature of the assay: TR-FRET lipid pocket probe competition assay (Lipid HTRF), TEAD4.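 Further: His-tagged TEAD4 with biotinylated lipid-pocket probe, read by Europium anti-His and XL665 streptavidin, where probe displacement lowers the TR-FRET signal, IC50 from a four-parameter fit.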 It counts as binding. The following applies: 4 hours pre-incubation; read-out: Lipid HTRF TEAD4 IC50. For orientation: In TR-FRET formats the signal depends on donor and acceptor labels being close together.
Sequence of TEAD4 (Q15561 whole entry, species assumed): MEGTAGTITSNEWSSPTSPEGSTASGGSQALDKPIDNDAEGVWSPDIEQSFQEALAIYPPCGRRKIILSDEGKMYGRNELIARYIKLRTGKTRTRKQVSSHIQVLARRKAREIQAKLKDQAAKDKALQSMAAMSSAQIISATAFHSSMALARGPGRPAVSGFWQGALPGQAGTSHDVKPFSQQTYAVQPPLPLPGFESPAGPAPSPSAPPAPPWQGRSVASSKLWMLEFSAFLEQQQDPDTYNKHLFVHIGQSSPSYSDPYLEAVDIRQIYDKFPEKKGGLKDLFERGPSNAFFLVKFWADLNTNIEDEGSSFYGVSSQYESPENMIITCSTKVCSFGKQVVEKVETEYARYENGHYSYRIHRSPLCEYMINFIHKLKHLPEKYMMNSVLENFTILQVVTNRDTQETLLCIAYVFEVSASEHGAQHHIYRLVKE
The target of another assay is TEAD1 (Homo sapiens (Human), UniProt P28347). The experiment in a line: TR-FRET lipid pocket probe competition assay (Lipid HTRF), TEAD1.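 Further: His-tagged TEAD1 with biotinylated probe, detected via Europium anti-His and XL665 streptavidin, probe displacement lowers TR-FRET signal, IC50 from four-parameter nonlinear fit.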 To be noted: 4 hours pre-incubation; read-out: Lipid HTRF TEAD1 IC50. It counts as binding.
Sequence of TEAD1 (P28347 whole entry, species assumed): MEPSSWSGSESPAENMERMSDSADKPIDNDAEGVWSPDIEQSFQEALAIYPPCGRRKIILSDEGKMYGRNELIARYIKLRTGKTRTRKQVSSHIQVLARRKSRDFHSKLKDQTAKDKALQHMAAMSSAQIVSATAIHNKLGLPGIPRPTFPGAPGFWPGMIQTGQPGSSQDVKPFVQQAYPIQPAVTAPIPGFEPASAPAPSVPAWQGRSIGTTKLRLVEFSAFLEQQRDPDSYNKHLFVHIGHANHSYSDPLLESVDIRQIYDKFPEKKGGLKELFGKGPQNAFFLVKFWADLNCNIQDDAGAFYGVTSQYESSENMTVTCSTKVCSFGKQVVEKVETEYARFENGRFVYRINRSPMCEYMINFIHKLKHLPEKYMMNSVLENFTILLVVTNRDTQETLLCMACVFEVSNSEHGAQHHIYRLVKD
The target of another assay is TEAD2 (Homo sapiens (Human), UniProt Q15562).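 Further: TR-FRET competition assay with His-tagged TEAD protein and a biotinylated lipid pocket probe, compound pre-incubated 30 min or 4 h at room temperature, displacement lowers signal.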
Sequence of TEAD2 (Q15562 whole entry, species assumed): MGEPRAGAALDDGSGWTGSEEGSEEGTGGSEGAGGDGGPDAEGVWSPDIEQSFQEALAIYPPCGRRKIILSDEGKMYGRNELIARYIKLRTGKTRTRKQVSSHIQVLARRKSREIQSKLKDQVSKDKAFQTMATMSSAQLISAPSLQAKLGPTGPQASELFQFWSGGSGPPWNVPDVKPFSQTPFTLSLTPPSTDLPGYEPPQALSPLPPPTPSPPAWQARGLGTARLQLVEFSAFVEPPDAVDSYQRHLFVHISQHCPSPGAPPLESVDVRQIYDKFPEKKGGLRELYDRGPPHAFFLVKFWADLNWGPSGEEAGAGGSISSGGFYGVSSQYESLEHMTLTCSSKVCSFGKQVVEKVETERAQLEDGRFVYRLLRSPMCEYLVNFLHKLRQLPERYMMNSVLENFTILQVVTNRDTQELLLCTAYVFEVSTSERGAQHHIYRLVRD

In general, IC50 refers to the concentration that inhibits the measured activity by half.

Sequence of TEAD3 (Q99594 whole entry, species assumed): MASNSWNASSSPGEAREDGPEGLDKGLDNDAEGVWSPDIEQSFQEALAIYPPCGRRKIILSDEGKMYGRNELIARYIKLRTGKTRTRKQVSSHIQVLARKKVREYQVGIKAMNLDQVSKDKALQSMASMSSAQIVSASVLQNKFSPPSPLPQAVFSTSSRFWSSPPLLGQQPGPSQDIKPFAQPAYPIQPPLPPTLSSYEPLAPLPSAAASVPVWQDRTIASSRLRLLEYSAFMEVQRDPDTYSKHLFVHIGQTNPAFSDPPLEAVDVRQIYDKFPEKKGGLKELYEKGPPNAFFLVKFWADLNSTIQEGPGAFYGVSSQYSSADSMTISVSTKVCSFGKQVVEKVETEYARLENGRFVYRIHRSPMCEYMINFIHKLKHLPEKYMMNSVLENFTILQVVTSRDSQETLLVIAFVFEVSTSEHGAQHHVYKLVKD
Experimental for TEAD1: His-tagged TEAD proteins are pre-incubated with TEAD project compounds for 30 minutes or 4 hours at room temperature. Biotinylated lipid pocket probes are then added to the TEAD/Compound mixture and incubated for 60 minutes at room temperature. The lipid pocket probe competes with the test compound for the TEAD lipid pocket until equilibrium is reached. After 60 minutes, Europium labelled anti-His (Perkin Elmer #AD0110) and XL665 labelled streptavidin (CIS Bio 610SAXAC) are added to the TEAD/test compound/lipid pocket mixture and incubated for 30 minutes or 4 hours. […] If a TEAD lipid pocket binder such as binds and displaces the lipid pocket probe, the disruption of the TEAD:probe interaction results in a decrease in TR-FRET signal. The potency of compounds as TEAD lipid pocket binders is determined by IC50 value generated using a non-linear 4 parameter curve fit.

Consider `O=C(/C=C\Cl)NCc1nn(-c2ccc(OC(F)(F)F)cc2)c2nccc([C@@H](O)CO)c12` [Compound 26, (R,Z)-3-chloro-N-((4-(1,2-dihydroxyethyl)-1-(4-(trifluoromethoxy)phenyl)-1H-pyrazolo[3,4-b]pyridin-3-yl)methyl)acrylamide], for which the IC50 is 50000 nM at TEAD3, 14 nM on TEAD4, 140 nM on TEAD1 and 160 nM at TEAD2.

For the compound `O=C(/C=C/Cl)NCc1nn(-c2ccc(OC(F)(F)F)cc2)c2nccc(CO)c12` [Compound 37, (E)-3-Chloro-N-((4-(hydroxymethyl)-1-(4-(trifluoromethoxy)phenyl)-1H-pyrazolo[3,4-b]pyridin-3-yl)methyl)acrylamide], the half-inhibitory concentration (IC50) at TEAD3 came out at 33 nM; on TEAD4, 3.2 nM; at TEAD1, 6.9 nM; against TEAD2, 14 nM.

`CC#CC(=O)N1CC(c2nn(-c3ccc(OC(F)(F)F)cc3)c3nccc([C@@H](O)CO)c23)C1` [Compound 71, (R)-1-(3-(4-(1,2-dihydroxyethyl)-1-(4-(trifluoromethoxy)phenyl)-1H-pyrazolo[3,4-b]pyridin-3-yl)azetidin-1-yl)but-2-yn-1-one]: the IC50 amounted to 43 nM on TEAD3, 16 nM at TEAD4, 32 nM on TEAD1 and 5.3 nM against TEAD2.

As to `C=CC(=O)NCc1nn(-c2ccc(S(F)(F)(F)(F)F)cc2)c2cccc([C@@H](O)CO)c12` (single isomer, unassigned) [Compound 10, N-((4-(1,2-dihydroxyethyl)-1-(4-(pentafluoro-λ^6-sulfanyl)phenyl)-1H-indazol-3-yl)methyl)acrylamide], the half-inhibitory concentration (IC50) at TEAD3 was determined as 560 nM; on TEAD4 it was 49 nM; on TEAD1, 100 nM; at TEAD2, 180 nM.

With `C=CC(=O)NCc1nn(-c2ccc(OC(F)(F)F)cc2)c2nccc(-c3c[nH]nn3)c12` [Compound 51, N-((4-(1H-1,2,3-Triazol-4-yl)-1-(4-(trifluoromethoxy)phenyl)-1H-pyrazolo[3,4-b]pyridin-3-yl)methyl)acrylamide], the half-inhibitory concentration (IC50) amounted to 510 nM at TEAD3, 15 nM on TEAD4, 32 nM on TEAD1 and 120 nM against TEAD2.

For the compound `C=C(F)C(=O)N1CC(c2nn(-c3ccc(OC(F)(F)F)cc3F)c3nccc(CO)c23)C1` [Compound 185, 2-fluoro-1-[3-[1-[2-fluoro-4-(trifluoromethoxy)phenyl]-4-(hydroxymethyl)pyrazolo[3,4-b]pyridin-3-yl]azetidin-1-yl]prop-2-en-1-one], the IC50 on TEAD3 was 260 nM; at TEAD4 it was 31 nM; at TEAD1 it was 57 nM; at TEAD2, 120 nM.

`C=C(F)C(=O)N1CC(c2nn(-c3ccc(OC(F)(F)F)cc3)c3nccc(C#N)c23)C1` [Compound 80, 3-(1-(2-fluoroacryloyl)azetidin-3-yl)-1-(4-(trifluoromethoxy)phenyl)-1H-pyrazolo[3,4-b]pyridine-4-carbonitrile]: the IC50 on TEAD3 came to 29 nM; on TEAD4, 16 nM; at TEAD1, 18 nM; on TEAD2 it was 68 nM.

As to `C=C(F)C(=O)N1CC(c2nn(-c3ccc(OC(F)(F)F)cc3)c3nccc(-c4cnn(CC(N)=O)c4)c23)C1` [Compound 181, 2-(4-(3-(1-(2-fluoroacryloyl)azetidin-3-yl)-1-(4-(trifluoromethoxy)phenyl)-1H-pyrazolo[3,4-b]pyridin-4-yl)-1H-pyrazol-1-yl)acetamide], the concentration for half-maximal inhibition (IC50) on TEAD3 is 50000 nM; at TEAD4 it was 37 nM; at TEAD1, 24 nM; at TEAD2 it was 62 nM.

Take `C=CC(=O)NCc1nn(-c2ccc(OC(F)(F)F)cc2)c2nccc(N3CC(OC)C3)c12` [Compound 118, N-((4-(3-methoxyazetidin-1-yl)-1-(4-(trifluoromethoxy)phenyl)-1H-pyrazolo[3,4-b]pyridin-3-yl)methyl)acrylamide]: the IC50 on TEAD3 is 50000 nM; on TEAD4, 4.3 nM; at TEAD1, 16 nM; at TEAD2, 97 nM.

`C=CC(=O)N1CC(c2nn(-c3ccc(OC(F)(F)F)cc3)c3nccc([C@@H](O)CO)c23)C1` [Compound 114, (R)-1-(3-(4-(1,2-Dihydroxyethyl)-1-(4-(trifluoromethoxy)phenyl)-1H-pyrazolo[3,4-b]pyridin-3-yl)azetidin-1-yl)prop-2-en-1-one]: the IC50 amounted to 16 nM on TEAD3, 2.9 nM on TEAD4, 14 nM on TEAD1 and 4.6 nM against TEAD2.

Turning to `C=C(F)C(=O)N1CC(c2nn(-c3ccc(OC(F)(F)F)cc3)c3nccc(N4CC(F)(CO)C4)c23)C1` [Compound 39, 2-Fluoro-1-(3-(4-(3-fluoro-3-(hydroxymethyl)azetidin-1-yl)-1-(4-(trifluoromethoxy)phenyl)-1H-pyrazolo[3,4-b]pyridin-3-yl)azetidin-1-yl)prop-2-en-1-one], the IC50 on TEAD3 is 840 nM; on TEAD4 it was 5.4 nM; on TEAD1, 42 nM; on TEAD2 it was 19 nM.

As to `C=CC(=O)NCc1nn(-c2ccc(OC(F)(F)F)cc2)c2nccc(-c3cnn(C4COC4)c3)c12` [Compound 171, N-[[4-[1-(oxetan-3-yl)pyrazol-4-yl]-1-[4-(trifluoromethoxy)phenyl]pyrazolo[3,4-b]pyridin-3-yl]methyl]prop-2-enamide], the IC50 on TEAD3 came to 810 nM; at TEAD4 it was 29 nM; at TEAD1, 60 nM; against TEAD2, 330 nM.

In the case of `C=CC(=O)NCc1nn(-c2ccc(OC(F)(F)F)cc2)c2nccc(N3CC(F)C3)c12` [Compound 84, N-((4-(3-Fluoroazetidin-1-yl)-1-(4-(trifluoromethoxy)phenyl)-1H-pyrazolo[3,4-b]pyridin-3-yl)methyl)acrylamide], the half-inhibitory concentration (IC50) amounted to 50000 nM on TEAD3, 6.3 nM at TEAD4, 23 nM on TEAD1 and 89 nM on TEAD2.

For `C=CC(=O)NCc1nn(-c2ccc(OC(F)(F)F)cc2)c2nccc(OCCO)c12` [Compound 126, N-((4-(2-Hydroxyethoxy)-1-(4-(trifluoromethoxy)phenyl)-1H-pyrazolo[3,4-b]pyridin-3-yl)methyl)acrylamide], the IC50 was 50000 nM at TEAD3, 4.4 nM on TEAD4, 22 nM at TEAD1 and 120 nM on TEAD2.

On to `C=CC(=O)NCc1nn(-c2ccc(OC(F)F)cc2)c2nccc(CO)c12` [Compound 140, N-((1-(4-(difluoromethoxy)phenyl)-4-(hydroxymethyl)-1H-pyrazolo[3,4-b]pyridin-3-yl)methyl)acrylamide], for which the IC50 came to 4400 nM at TEAD3, 440 nM on TEAD4, 230 nM at TEAD1 and 720 nM against TEAD2.

As for `C=CC(=O)NCc1nn(-c2ccc(OC(F)(F)F)cc2)c2nccc(N3CC(NC)C3)c12` [Compound 122, N-((4-(3-(methylamino)azetidin-1-yl)-1-(4-(trifluoromethoxy)phenyl)-1H-pyrazolo[3,4-b]pyridin-3-yl)methyl)acrylamide], the half-inhibitory concentration (IC50) worked out at 21000 nM at TEAD3, 39 nM at TEAD4, 190 nM on TEAD1 and 2000 nM on TEAD2.

As for `C=CC(=O)NCc1nn(-c2ccc(OC(F)(F)F)cc2)c2nccc(-c3cnn(C(C)C)c3)c12` [Compound 170, N-[[4-(1-isopropylpyrazol-4-yl)-1-[4-(trifluoromethoxy)phenyl]pyrazolo[3,4-b]pyridin-3-yl]methyl]prop-2-enamide], the IC50 on TEAD3 is 26600 nM; on TEAD4, 92.8 nM; at TEAD1 it was 120 nM; against TEAD2, 355 nM.

As to `C=C(Cl)C(=O)N1CC(c2nn(-c3ccc(OC(F)(F)F)cc3)c3nccc([C@@H](O)CO)c23)C1` [Compound 110, (R)-2-chloro-1-(3-(4-(1,2-dihydroxyethyl)-1-(4-(trifluoromethoxy)phenyl)-1H-pyrazolo[3,4-b]pyridin-3-yl)azetidin-1-yl)prop-2-en-1-one], the 50% inhibitory concentration (IC50) at TEAD3 amounted to 17 nM; on TEAD4, 4.3 nM; at TEAD1, 19 nM; against TEAD2 it was 8 nM.

`C=C(F)C(=O)N1CC(c2nn(-c3ccc(OC(F)(F)F)cc3)c3nccc([C@H](O)CO)c23)C1` [Compound 31, (S)-1-(3-(4-(1,2-dihydroxyethyl)-1-(4-(trifluoromethoxy)phenyl)-1H-pyrazolo[3,4-b]pyridin-3-yl)azetidin-1-yl)-2-fluoroprop-2-en-1-one]: the IC50 on TEAD3 turned out to be 62 nM; at TEAD4, 25.5 nM; at TEAD1, 35 nM; on TEAD2 it was 32 nM.

Regarding `C=C(C)S(=O)(=O)N1CC(c2nn(-c3ccc(OC(F)(F)F)cc3)c3nccc([C@H](O)CO)c23)C1` [Compound 159, (S)-1-(3-(1-(Prop-1-en-2-ylsulfonyl)azetidin-3-yl)-1-(4-(trifluoromethoxy)phenyl)-1H-pyrazolo[3,4-b]pyridin-4-yl)ethane-1,2-diol], the IC50 is 240 nM at TEAD3, 8.5 nM on TEAD4, 45 nM at TEAD1 and 5.7 nM against TEAD2.

With `C=C(F)C(=O)NCc1nn(-c2ccc(OC(F)(F)F)cc2)c2nccc(CO)c12` [Compound 68, 2-Fluoro-N-((4-(hydroxymethyl)-1-(4-(trifluoromethoxy)phenyl)-1H-pyrazolo[3,4-b]pyridin-3-yl)methyl)acrylamide], the IC50 at TEAD3 was determined as 980 nM; on TEAD4, 140 nM; at TEAD1, 71 nM; against TEAD2, 550 nM.

Take `C=CC(=O)NCc1nn(-c2ccc(OC(F)(F)F)cc2)c2nccc(N[C@H]3C[C@@H](O)C3)c12` [Compound 143, N-((4-((3-hydroxycyclobutyl)amino)-1-(4-(trifluoromethoxy)phenyl)-1H-pyrazolo[3,4-b]pyridin-3-yl)methyl)acrylamide]: the IC50 is 50000 nM on TEAD3, 65 nM at TEAD4, 16 nM on TEAD1 and 65 nM on TEAD2.
